Experimental data published in US12350782B2, “Method for producing stable-phase crystals using physical grinding” (University-Industry Cooperation Group of Kyung Hee …, priority 2021, dated 2025).
Read-outs that look alike come from different tables or passages of the source.

Details: for phase-transformed into gamma-glycine: after 24 hours

**Q.** With `NCC(=O)O` [alpha-glycine, glycine] as the compound, how does the phase-transformed into gamma-glycine (100 g glass beads 1.7 to 2.0 mm, 300 g group 1, 500 rpm) read?
**A.** Its phase-transformed into gamma-glycine is 100%.

**Q.** What about the “gamma-glycine (stable phase crystal) obtained” value (glass beads 1.7 to 2.0 mm, about 100 to 200 g, 300 rpm, stirred/ground 24-48 hours, groups 1 to 6) of the same compound?
**A.** Its value is 100%.

**Q.** And the “time after which supersaturation of stable phase crystals (gamma-glycine) increased” value (magnetic bar in propeller stirring device, 300 rpm)?
**A.** Its value is “about 1,500 minutes”.

**Q.** What about the “stable phase crystals obtained” value (magnetic bar stirred/ground at 300 rpm for about 65 hours or more (6,800 minutes)) of the same compound?
**A.** Its value is 100%.

**Q.** And the “stable phase crystal (gamma-glycine) precipitation rate” value (simple propeller stirrer, no physical grinding, 300 g, 300 rpm, about 15 days, groups 1 to 6 of Table 1)?
**A.** The value was 0%.

**Q.** And the “phase transformation from alpha-glycine to gamma-glycine” value (zirconia beads 5.0 to 7.0 mm, 100 rpm, 24 hours plus further 48 hours stirring)?
**A.** Its value is 100%.

**Q.** And the phase-transformed into gamma-glycine (zirconia beads 5.0 to 7.0 mm, 300 g group 1, 100 rpm)?
**A.** The phase-transformed into gamma-glycine was 0%.
